Experimental findings from patent publication US11912703B2, “6-azaindole compounds” (BRISTOL-MYERS SQUIBB COMPANY, priority 2017, dated 2024) are described below.

Molecules are shown by their SMILES.

The target in one assay is human TLR8 (Homo sapiens (Human), UniProt Q9NR97). The assay is described as follows: TLR8 inhibition reporter assay (HEK-Blue SEAP).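 Further: SEAP driven by IFN-β minimal promoter with five NF-κB and AP-1 sites, compounds tested 0.05 nM to 50 µM, 22 h incubation, inhibition relative to agonist plus DMSO wells.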 Conditions: read-out: TLR8 IC50; HEK-Blue cells overexpressing human TLR8, R848 15.9 μM stimulation, SEAP reporter. (In a reporter assay the amount or activity of a reporter protein is the signal.)
Sequence of human TLR8 (Q9NR97 27-1041): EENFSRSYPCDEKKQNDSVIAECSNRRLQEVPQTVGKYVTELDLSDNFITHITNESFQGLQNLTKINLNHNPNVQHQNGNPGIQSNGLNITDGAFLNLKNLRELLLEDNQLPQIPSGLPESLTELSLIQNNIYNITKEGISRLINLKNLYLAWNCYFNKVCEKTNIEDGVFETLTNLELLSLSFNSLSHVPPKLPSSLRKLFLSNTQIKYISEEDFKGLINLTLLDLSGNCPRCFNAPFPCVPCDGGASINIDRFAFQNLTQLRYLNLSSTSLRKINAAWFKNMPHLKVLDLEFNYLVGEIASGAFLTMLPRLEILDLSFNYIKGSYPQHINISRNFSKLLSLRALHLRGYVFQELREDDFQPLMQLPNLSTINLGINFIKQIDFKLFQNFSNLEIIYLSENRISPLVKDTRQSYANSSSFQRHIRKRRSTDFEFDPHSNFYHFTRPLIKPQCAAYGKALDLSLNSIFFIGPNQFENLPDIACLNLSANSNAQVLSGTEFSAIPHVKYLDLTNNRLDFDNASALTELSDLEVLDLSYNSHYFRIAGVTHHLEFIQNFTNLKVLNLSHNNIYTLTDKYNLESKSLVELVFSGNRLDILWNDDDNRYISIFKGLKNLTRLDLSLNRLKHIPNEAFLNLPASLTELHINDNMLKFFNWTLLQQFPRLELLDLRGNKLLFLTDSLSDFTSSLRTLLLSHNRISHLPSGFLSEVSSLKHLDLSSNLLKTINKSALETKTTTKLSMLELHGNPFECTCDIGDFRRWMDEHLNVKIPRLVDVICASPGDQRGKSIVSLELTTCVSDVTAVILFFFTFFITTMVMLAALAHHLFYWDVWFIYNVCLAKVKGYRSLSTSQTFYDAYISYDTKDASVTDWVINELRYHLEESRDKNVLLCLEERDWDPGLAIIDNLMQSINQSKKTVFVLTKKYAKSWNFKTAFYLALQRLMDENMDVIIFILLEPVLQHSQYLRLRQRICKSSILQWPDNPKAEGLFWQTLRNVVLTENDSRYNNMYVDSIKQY
Another assay addresses human TLR7 (Homo sapiens (Human), UniProt Q9NYK1). The assay is described as follows: TLR7 inhibition reporter assay (HEK-Blue SEAP). In kind it is cell-based. The following applies: HEK-Blue cells overexpressing human TLR7, gardiquimod 7.5 μM stimulation.
The target of a further assay is human TLR9 (Homo sapiens (Human), UniProt Q9NR96). The assay is described as follows: TLR9 inhibition reporter assay (HEK-Blue SEAP).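 Further: SEAP driven by IFN-β minimal promoter carrying five NF-κB and AP-1 sites, 22 h at 37 °C, compounds 0.05 nM–50 µM, inhibition scaled between agonist-plus-DMSO and reference-inhibitor wells.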 The following applies: read-out: TLR9 IC50; HEK-Blue cells overexpressing human TLR9, ODN2006 5 nM stimulation, SEAP reporter.
Sequence of human TLR9 (Q9NR96 26-1032): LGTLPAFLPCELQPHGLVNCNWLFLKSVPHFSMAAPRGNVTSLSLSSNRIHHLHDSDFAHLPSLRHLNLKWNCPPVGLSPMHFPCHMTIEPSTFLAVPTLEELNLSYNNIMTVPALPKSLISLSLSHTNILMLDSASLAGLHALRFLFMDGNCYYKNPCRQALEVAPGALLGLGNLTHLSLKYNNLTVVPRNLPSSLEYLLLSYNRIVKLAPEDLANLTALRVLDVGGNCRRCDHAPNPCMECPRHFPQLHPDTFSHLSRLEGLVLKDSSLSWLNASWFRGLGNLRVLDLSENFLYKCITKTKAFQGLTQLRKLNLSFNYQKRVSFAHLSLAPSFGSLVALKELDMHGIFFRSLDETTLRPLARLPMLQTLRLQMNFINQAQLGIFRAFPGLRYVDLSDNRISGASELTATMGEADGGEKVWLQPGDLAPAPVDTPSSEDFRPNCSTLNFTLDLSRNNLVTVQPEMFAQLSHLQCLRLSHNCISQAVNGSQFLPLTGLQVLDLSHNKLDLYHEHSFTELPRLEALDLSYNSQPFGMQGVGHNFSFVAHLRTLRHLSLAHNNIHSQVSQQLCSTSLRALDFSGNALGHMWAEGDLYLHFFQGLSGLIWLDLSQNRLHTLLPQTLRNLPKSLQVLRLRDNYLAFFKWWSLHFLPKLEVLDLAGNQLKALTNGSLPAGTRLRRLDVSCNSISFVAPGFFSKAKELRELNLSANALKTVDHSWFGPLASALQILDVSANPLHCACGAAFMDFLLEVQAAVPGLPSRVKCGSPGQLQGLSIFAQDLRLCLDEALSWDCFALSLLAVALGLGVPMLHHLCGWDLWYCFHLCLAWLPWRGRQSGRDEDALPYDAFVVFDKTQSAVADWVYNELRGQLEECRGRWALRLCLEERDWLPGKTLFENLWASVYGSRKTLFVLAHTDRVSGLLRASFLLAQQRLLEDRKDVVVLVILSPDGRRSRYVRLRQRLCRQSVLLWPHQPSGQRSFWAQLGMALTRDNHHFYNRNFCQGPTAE

Sequence of human TLR7 (Q9NYK1 27-1049): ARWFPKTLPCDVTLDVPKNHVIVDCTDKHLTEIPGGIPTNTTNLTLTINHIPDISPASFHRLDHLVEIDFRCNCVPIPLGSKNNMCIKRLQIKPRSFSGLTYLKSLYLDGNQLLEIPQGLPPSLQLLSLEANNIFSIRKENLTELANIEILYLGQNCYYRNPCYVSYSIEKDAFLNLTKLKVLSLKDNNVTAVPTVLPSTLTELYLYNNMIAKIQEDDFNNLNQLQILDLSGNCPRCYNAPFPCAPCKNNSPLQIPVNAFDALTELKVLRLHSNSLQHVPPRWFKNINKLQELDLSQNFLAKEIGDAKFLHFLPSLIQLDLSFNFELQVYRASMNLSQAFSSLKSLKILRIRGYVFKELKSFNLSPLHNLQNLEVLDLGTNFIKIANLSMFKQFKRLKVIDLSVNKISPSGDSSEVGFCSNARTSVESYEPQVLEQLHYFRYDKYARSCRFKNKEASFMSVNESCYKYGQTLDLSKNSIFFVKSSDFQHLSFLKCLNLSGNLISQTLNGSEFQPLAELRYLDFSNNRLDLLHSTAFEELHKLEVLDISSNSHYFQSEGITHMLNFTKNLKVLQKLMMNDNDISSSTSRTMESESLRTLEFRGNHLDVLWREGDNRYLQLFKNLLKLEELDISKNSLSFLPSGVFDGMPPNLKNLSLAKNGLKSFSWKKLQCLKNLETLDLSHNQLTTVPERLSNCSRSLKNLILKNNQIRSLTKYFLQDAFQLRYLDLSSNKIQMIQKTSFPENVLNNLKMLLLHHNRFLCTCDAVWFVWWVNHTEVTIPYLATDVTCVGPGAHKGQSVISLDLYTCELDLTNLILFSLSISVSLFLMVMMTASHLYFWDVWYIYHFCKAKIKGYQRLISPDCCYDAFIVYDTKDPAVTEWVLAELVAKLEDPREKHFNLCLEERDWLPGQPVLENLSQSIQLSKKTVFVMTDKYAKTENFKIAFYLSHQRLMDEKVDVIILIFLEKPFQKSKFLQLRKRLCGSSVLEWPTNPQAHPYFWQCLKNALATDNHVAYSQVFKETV

The IC50 is the point on the concentration scale where inhibition reaches its midpoint. On to `CCN(C)C1CCC(c2cc3c(C(C)C)c(-c4cc(OC)c5ncnn5c4)[nH]c3cn2)C1` (stereo not drawn) [Example 248], for which the values for the IC50 at human TLR8, at human TLR7 and on human TLR9 were 6.8 nM, 5.7 nM and 396 nM, respectively.
With `CCN(C)C1CCC(c2cc3c(C(C)C)c(-c4cc(OC)c5ncnn5c4)[nH]c3cn2)C1` (stereo not drawn) [Example 249], the IC50 came out at 12 nM at human TLR8, 12 nM at human TLR7 and 1450 nM at human TLR9.
As for `Cc1cc(-c2[nH]c3cnc(C4CCN(CC5(C)COC5)CC4)c(F)c3c2C(C)C)cn2ncnc12` [Example 250], the IC50 at human TLR8 is 3.4 nM; against human TLR7, 3.2 nM; at human TLR9 it was 4770 nM.
Taken in the same sequence, the figures for `Cc1cc(-c2[nH]c3cnc(C4CCN(C5COC5)CC4)c(F)c3c2C(C)C)cc(C)n1` [Example 251] were 23 nM, 15 nM and 14800 nM.
`COc1cc(-c2[nH]c3cnc(N4CCN(CC(=O)N(C)C)CC4)c(C)c3c2C(C)C)cn2ncnc12` [Example 252]: the IC50 at human TLR8 was 5.2 nM; against human TLR7, 6.4 nM; at human TLR9, 3360 nM.
As to `COc1cc(-c2[nH]c3cnc(N4CCC(N5CCC5)CC4)c(F)c3c2C(C)C)cn2ncnc12` [Example 253], the IC50 on human TLR8 was determined as 0.77 nM; against human TLR7, 0.97 nM; at human TLR9, 2860 nM.
Turning to `COc1cc(-c2[nH]c3cnc(N4CCC(N5CC6(COC6)C5)CC4)c(F)c3c2C(C)C)cn2ncnc12` [Example 254], the half-maximal inhibitory concentration (IC50) at human TLR8 came to 0.55 nM; on human TLR7, 1.5 nM; on human TLR9, 3010 nM.
For `Cc1cc(-c2[nH]c3cnc(N4CCC(NC5COC5)CC4)c(F)c3c2C(C)C)cn2ncnc12` [Example 255], the concentration for half-maximal inhibition (IC50) on human TLR8 is 0.49 nM; on human TLR7, 0.5 nM; at human TLR9, 14500 nM.
Taken in the same sequence, the figures for `Cc1cc(-c2[nH]c3cnc(N4CCC(N(C)C)CC4)c(F)c3c2C(C)C)cn2ncnc12` [Example 256] were 1.2 nM, 1.4 nM and 15400 nM.
Take `Cc1cc(-c2[nH]c3cnc(N4CCC(N(C)CC(F)F)CC4)c(F)c3c2C(C)C)cn2ncnc12` [Example 257]: the values for the IC50 at human TLR8, against human TLR7 and on human TLR9 were 6.4 nM, 5.3 nM and 36000 nM, respectively.
As to `Cc1cc(-c2[nH]c3cnc(N4CCC(NCC(C)(C)O)CC4)c(F)c3c2C(C)C)cn2ncnc12` [Example 258], the IC50 amounted to 0.35 nM at human TLR8, 0.77 nM against human TLR7 and 6020 nM on human TLR9.
Take `CNC(=O)CN(C)C1CCN(c2ncc3[nH]c(-c4cc(C)c5ncnn5c4)c(C(C)C)c3c2F)CC1` [Example 259]: the IC50 was 2.6 nM at human TLR8, 2.1 nM at human TLR7 and 16800 nM at human TLR9.
For `Cc1cc(-c2[nH]c3cnc(C4CCC(NCC(C)(C)C)CC4)c(F)c3c2C(C)C)cn2ncnc12` (stereo not drawn) [Example 260], the values for the IC50 on human TLR8, on human TLR7 and on human TLR9 were 1.7 nM, 1.4 nM and 837 nM, respectively.
For `Cc1cc(-c2[nH]c3cnc(C4CCC(N(C)C(C)C)CC4)c(F)c3c2C(C)C)cn2ncnc12` (stereo not drawn) [Example 261], in that order: 1.1 nM, 0.61 nM and 1270 nM.
On to `Cc1cc(-c2[nH]c3cnc(C4CCC(N5CCC5)CC4)c(F)c3c2C(C)C)cn2ncnc12` (stereo not drawn) [Example 262], for which the IC50 came to 4.2 nM at human TLR8, 1.3 nM at human TLR7 and 1330 nM on human TLR9.
Turning to `CCN(C)C1CCC(c2ncc3[nH]c(-c4cn5ncnc5c(C)c4C)c(C(C)C)c3c2F)CC1` (stereo not drawn) [Example 263], the IC50 at human TLR8 is 4.1 nM; against human TLR7, 1.9 nM; on human TLR9, 5650 nM.
Take `Cc1c(-c2[nH]c3cnc(N4CCC(NC5CCOCC5)CC4)c(F)c3c2C(C)C)cn2ncnc2c1C` [Example 264]: the 50% inhibitory concentration (IC50) at human TLR8 amounted to 0.16 nM; against human TLR7, 0.69 nM; at human TLR9 it was 1640 nM.
In the case of `Cc1c(N2CCC(NC3CCOCC3)CC2)ncc2[nH]c(-c3cc(C)c4ncnn4c3)c(C(C)C)c12` [Example 265], the IC50 on human TLR8 came to 0.42 nM; at human TLR7, 0.36 nM; on human TLR9 it was 1020 nM.
`Cc1c(-c2[nH]c3cnc(C4CCC(NC5COC5)CC4)c(F)c3c2C(C)C)cn2ncnc2c1C` (stereo not drawn) [Example 267]: the IC50 at human TLR8 was 1.9 nM; against human TLR7 it was 6.9 nM; on human TLR9 it was 16700 nM.
Taken in the same sequence, the figures for `CCN(C)C1CCC(c2ncc3[nH]c(-c4cc(OC)c5ncnn5c4)c(C(C)C)c3c2C)CC1` (stereo not drawn) [Example 268] were 17 nM, 4.8 nM and 757 nM.
With `COc1cc(-c2[nH]c3cnc(C4CCC(NCC5(C)COC5)CC4)c(C)c3c2C(C)C)cn2ncnc12` (stereo not drawn) [Example 269], the IC50 came to 6.4 nM on human TLR8, 4.4 nM against human TLR7 and 205 nM on human TLR9.
Consider `COc1cc(-c2[nH]c3cnc(C4CCC(NCC5(C)COC5)CC4)c(C)c3c2C(C)C)cn2ncnc12` (stereo not drawn) [Example 270], for which the values for the IC50 on human TLR8, against human TLR7 and at human TLR9 were 3.2 nM, 2.6 nM and 392 nM, respectively.
Regarding `COc1cc(-c2[nH]c3cnc(C4CCC(NCC(C)(C)F)CC4)c(C)c3c2C(C)C)cn2ncnc12` (stereo not drawn) [Example 271], the IC50 at human TLR8 worked out at 4.2 nM; against human TLR7, 1.6 nM; on human TLR9, 333 nM.
For `CCN(C)C1CCC(c2cc3c(C(C)C)c(-c4cc(OC)c5ncnn5c4)[nH]c3cn2)C1` (stereo not drawn) [Example 272], in that order: 22 nM, 7 nM and 391 nM.
For the molecule `COc1cc(-c2[nH]c3cnc(C4CCC(NC5COC5)C4)cc3c2C(C)C)cn2ncnc12` (stereo not drawn) [Example 273], the values for the IC50 on human TLR8, at human TLR7 and at human TLR9 were 16 nM, 8.6 nM and 376 nM, respectively.
Take `COc1cc(-c2[nH]c3cnc(C4CCC(NC5COC5)C4)cc3c2C(C)C)cn2ncnc12` (stereo not drawn) [Example 274]: the IC50 at human TLR8 amounted to 35 nM; against human TLR7, 42 nM; at human TLR9 it was 648 nM.
In the case of `COc1cc(-c2[nH]c3cnc(C4CCC(NCC5(C)COC5)C4)cc3c2C(C)C)cn2ncnc12` (stereo not drawn) [Example 275], the concentration for half-maximal inhibition (IC50) at human TLR8 was 37 nM; on human TLR7, 35 nM; on human TLR9 it was 845 nM.
Turning to `COc1cc(-c2[nH]c3cnc(C4CCC(NCC5(C)COC5)C4)cc3c2C(C)C)cn2ncnc12` (stereo not drawn) [Example 276], the IC50 on human TLR8 was determined as 1.2 nM; at human TLR7, 7.7 nM; on human TLR9, 114 nM.
Turning to `Cc1c(-c2[nH]c3cnc(C4CCC(NC(C)C)CC4)c(C)c3c2C(C)C)cn2ncnc2c1C` (stereo not drawn) [Example 277], the results for the IC50 on human TLR8, against human TLR7 and on human TLR9 were 13 nM, 5.5 nM and 265 nM, respectively.
With `COc1cc(-c2[nH]c3cnc(N4CCC(N5CCOCC5)CC4)c(C)c3c2C(C)C)cn2ncnc12` [Example 278], the IC50 at human TLR8 turned out to be 0.58 nM; against human TLR7, 0.79 nM; at human TLR9 it was 1100 nM.
As to `Cc1c(N2CCC(N3CCC3)CC2)ncc2[nH]c(-c3cc(C)c4ncnn4c3)c(C(C)C)c12` [Example 279], the IC50 was 1.5 nM at human TLR8, 0.65 nM on human TLR7 and 1110 nM at human TLR9.
On to `Cc1c(N2CCC(N(C)CCC#N)CC2)ncc2[nH]c(-c3cc(C)c4ncnn4c3)c(C(C)C)c12` [Example 280], for which the results for the concentration for half-maximal inhibition (IC50) at human TLR8, at human TLR7 and on human TLR9 were 1.2 nM, 1.3 nM and 2500 nM, respectively.
